Source: patent US4957927A, “(Diarylmethoxy alkyl)-1-pyrrolidines and piperidines having cardiovascular activity” (Lipha, Lyonnaise Industrielle Pharmaceutique, priority 1988, dated 1990)
pIC50: −log10 of the molar value. Structures can show the parent of a compound that is named as a salt.

Legend:
[1] = system: isolated depolarized artery of the rabbit's ear; assay: decrease in perfusion pressure (calcium-inhibitive effect) on the isolated depolarized artery of the rabbit's ear; conditions: Table 1; single dose of 10 μg injected into the perfusion system; hyperpotassic depolarizing solution; average of at least three artery fragments; measured at peak of action
Protocol: The calcium-inhibitive effect was researched in vitro using the method described by J. M. Van Neuten (Eur. J. Pharmacol., 1969, 6, 286) on the isolated depolarized artery of the rabbit's ear:
A fragment of the central artery of the ear was cannulated and suspended in 100 ml of a Tyrode solution [NaCl: 136.90 mmole/l; KCl: 2.68 mmole/l; CaCl2 : 3.60 mmole/l; MgCl2 : 1.04 mmole/l; NaH2 PO4 : 0.42 mmole/l; glucose: 5.55 mmole/l, NaHCO3 : 11.90 mmole/l ]. The fragment was oxygenated (O2 : 95%; CO2 : 5%) and perfused with a constant 2-ml/minute flow of Tyrode at 37° C. Pressure changes in the perfusion circuit were recorded continuously using a pressure sensor. After an equilibration period, the Tyrode was replaced with a hyperpotassic depolarizing solution [NaCl: 39.33 mmole/l; KCl: 99.83 mmole/l; CaCl2 : 3.60 mmole/l; MgCl2 : 1.04 mmole/l; NaH2 PO4 : 0.42 mmole/l; glucose: 5.55 mmole/l; NaHCO3 : 11.90 mmole/l ], which, because of intracellular calcium penetration, caused significant and durable vasoconstriction, antagonized by a calcium inhibitor. The products according to the invention were tested in a single dose of 10 μg administered by injection into the perfusion system, at a rate of 0.1 ml for 10 seconds. […] The effects of the products according to the invention on vasoconstriction induced by the hyperpotassic solution were monitored for several hours. The intensity was measured at the peak of their action.
Each product was tested on at least three artery fragments. Table I includes the average decreases in perfusion pressure observed for a few products according to the invention.

[2] = acute oral toxicity (lethal dose 50) in rats; conditions: rat, in vivo
Description: Thus, the compound in example 10 has a lethal dose 50 in rats greater than 1 g/kg when administered orally.

calmodulin = calmodulin (Bos taurus, UniProt P62157); assay: anti-calmodulin activity (calmodulin activation of Type I cardiac phosphodiesterase); type: biochemical
Protocol: The principle of the method used is the activating effect calmodulin has on the basic enzyme activity of Type I cardiac phosphodiesterase (H. C. Ho et al., Biochim. Biophys. Acta 1976, 429, 461). Enzyme activity is measured using the W. J. Thomson and H. M. Appleman technique (Biochemistry, 1971, 10, 311).

| Structure (SMILES) | % drop in perfusion pressure ± standard error [1] | LD50 [2] | pIC50 (calmodulin) |
| --- | --- | --- | --- |
| COc1cccc(C2CCN(CCOC(c3ccccc3)c3ccccc3)C2)c1.O=C(O)C(=O)O (stereo not shown) [Example 1, 1-[2-(diphenylmethoxy)ethyl]-3-(3-methoxyphenyl)pyrrolidine oxalate] | 56 ± 6% | – | – |
| COc1ccc(C2CCN(CCOC(c3ccccc3)c3ccccc3)C2)cc1OC (stereo not shown) [Example 4, 3-(3,4dimethoxyphenyl)-1-[2-diphenylmethoxy)ethyl]pyrrolidine oxalate] | 54 ± 5% | – | – |
| COc1cccc(C2CCN(CCOC(c3ccc(F)cc3)c3ccc(F)cc3)C2)c1 (stereo not shown) [Example 10, 1-[2-[bis(4-fluorophenyl)methoxy]ethyl]-3-(3-methoxyphenyl)pyrrolidine] | 59 ± 4% | > 1000 mg/kg | 4.08 |
| COc1cccc(C2CCCN2CCOC(c2ccccc2)c2ccccc2)c1 (stereo not shown) [Example 11, 1-[2-(diphenylmethoxy)ethyl]-2-(3-methoxyphenyl)pyrrolidine] | 56 ± 5% | – | – |
| COc1ccccc1C1CCN(CCOC(c2ccccc2)c2ccccc2)C1 (stereo not shown) [Example 13, 1-[2-diphenylmethoxy)ethyl]-3-(2-methoxyphenyl) pyrrolidine maleate] | 58 ± 5% | – | – |
| CC(C)Oc1cccc(C2CCN(CCOC(c3ccc(F)cc3)c3ccc(F)cc3)C2)c1 (stereo not shown) [Example 14, 1-[2-[bis(4-fluorophenyl)methoxy]ethyl]-3-(3-isopropoxyphenyl)pyrrolidine] | 54 ± 5% | – | – |
| COc1cc(OC)cc(C2CCN(CCOC(c3ccc(F)cc3)c3ccc(F)cc3)C2)c1 (stereo not shown) [Example 15, 1-[2-[bis(4-fluorophenyl)methoxy]ethyl]-3-(3,5-dimethoxyphenyl)pyrrolidine fumarate] | 52 ± 5% | – | – |
| Fc1ccc(C(c2ccc(F)cc2)N2CCN(C/C=C/c3ccccc3)CC2)cc1 [flunarizine, reference compound] | 41 ± 4% | – | – |
